The text below walks through data of patent US20120289574A1, “HYDRATE CRYSTALS” (AJINOMOTO CO., INC., priority 2008, published 2012).

Like-named read-outs stand apart in the source and are kept apart here.

The nature of data set [1]: Water vapor adsorption/desorption test. The format is physicochemical. The conditions noted are these: water vapor adsorption/desorption curve, adsorption temperature 298 K. The text has this:
A water vapor adsorption/desorption curve was plotted for the (2R,4R) monatin monosodium salt hydrate crystals (A) obtained in Example 1. The measurement conditions were as follows. The measured values are given in FIG. 5. • Device: Automatic vapor adsorption measuring device BELSORP18 made by Bel Japan Inc. • Measurement method: Volumetric gas adsorption method
• Adsorbed gas: H2O • Air thermostat temperature (K): 353 • Adsorption temperature (K): 298 • Saturation vapor pressure (kPa): 3.169 • Adsorption cross-sectional area (nm^2): 0.125 • Maximum adsorption pressure (relative pressure P/PO): desorption: 0.90; adsorption: 0.95 • Minimum adsorption pressure (relative pressure P/PO): desorption: 0.10; adsorption: 0.05 • Equilibration period: 500 s

The nature of data set [2]: Sweetness intensity by panelists relative to 5 percent sucrose aqueous solution. It counts as in vivo. The settings on record: average of values provided by seven panelists relative to 5 percent sucrose aqueous solution. The text has this: Sweetness intensity: 2,700-fold (average of values provided by seven panelists relative to 5 percent sucrose aqueous solution)
For data set [3] the following is noted: for Rate of decomposition over time into the decomposition product X (lactone) / Rate of decomposition over time into the decomposition product Y (lactam): storage 120° C., open vial, HPLC area ratio relative to monatin; for Comparison of decomposition rates ((b)/(a)), decomposition product X (lactone) / Comparison of decomposition rates ((b)/(a)), decomposition product Y (lactam): Comp. Ex. 1 (b) relative to Example 4 (a), 120° C.
Protocol: A 50 mg quantity of the crystals of Example 4 and an identical quantity of the crystals of Comparative Example 1 were placed in separate 4 mL vials and stored at a temperature of 120° C. During this storage, the vials were left open. Following storage periods of 3 hours, 7 hours, and 24 hours, 2 mg of sample was removed and the rate of decomposition of the samples was determined by HPLC. Specifically, decomposition product X was a lactone compound (RT=21 minutes) and decomposition product Y was a lactam compound (RT=26 minutes). The individual area ratios (percentages) were calculated relative to the area of monatin.

Setting [4] is: 24 hr, listed as Comparative Example 1.

Turning to `NC(CC(O)(Cc1c[nH]c2ccccc12)C(=O)O)C(=O)[O-].[Na+]` [Example 1, (2R,4R) Monatin Monosodium Salt Hydrate Crystals (A)], the Most stable hydrate entry in data set [1] was “trihydrate”.

Consider `N[C@H](C[C@](O)(Cc1c[nH]c2ccccc12)C(=O)O)C(=O)[O-].O.[Na+]` [Example 4, (2R,4R) Monatin Monosodium Salt Monohydrate Crystals (B)], for which the Sweetness intensity in data set [2] is reported as 2,700 fold. The “Rate of decomposition over time into the decomposition product X (lactone)” value amounted to 0% in data set [3] (0 hr), 0.11% in data set [3] (3 hr), 0.23% in data set [3] (7 hr) and 0.24% in data set [3] (24 hr). Moreover, the “Rate of decomposition over time into the decomposition product Y (lactam)” value is reported as 0% in data set [3] (0 hr), 0.11% in data set [3] (3 hr), 0.21% in data set [3] (7 hr) and 0.38% in data set [3] (24 hr).

With “(2R,4R) monatin monosodium salt 0.2 ethanolate [Comp. Ex. 1]”, the “Comparison of decomposition rates ((b)/(a)), decomposition product X (lactone)” value in data set [3] (3 hr) is 30-fold; in data set [3] (7 hr) it was 21-fold; in data set [3] (24 hr), 27-fold; in data set [3] (setting [4]), 27 fold. For the same molecule, the “Comparison of decomposition rates ((b)/(a)), decomposition product Y (lactam)” value in data set [3] (3 hr) is given as 19-fold; in data set [3] (7 hr), 17-fold; in data set [3] (24 hr) it was 20-fold; in data set [3] (setting [4]), 20 fold. The “Rate of decomposition over time into the decomposition product X (lactone)” value worked out at 0% in data set [3] (0 hr), 3.38% in data set [3] (3 hr), 4.64% in data set [3] (7 hr) and 6.67% in data set [3] (24 hr). The “Rate of decomposition over time into the decomposition product Y (lactam)” value in data set [3] (0 hr) is 0%; in data set [3] (3 hr), 2.08%; in data set [3] (7 hr), 3.63%; in data set [3] (24 hr), 7.46%.
